Results as given in patent US20230382904A1, “SUBSTITUTED 4-([1,2,4]TRIAZOLO[1,5-a]PYRIDIN-6-YL)THIOPHENE-2-CARBOXAMIDE DERIVATIVES AND USE THEREOF” (The Johns Hopkins University, priority 2020, published 2023).

Legend:
[1] = target: LZK (Homo sapiens (Human), UniProt O43283); assay: LZK biochemical assay (TR-FRET, MKK7 phosphorylation)
Summary of the method: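 Readout is the HTRF ratio (XL665/Eu) from an EDTA-containing detection mix of 0.4 nM Eu-anti-phospho-MKK7 (T275/S277) and 20 nM XL665-anti-His, incubated 16 h at 32° C. This followed a 90 min RT reaction of 10 nM LZK catalytic domain, 15 nM MKK7 and 15 μM ATP at pH 7.5.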

[2] = target: DLK (Homo sapiens (Human), UniProt Q12852); assay: DLK biochemical assay (TR-FRET, MKK7 phosphorylation)
Summary of the method: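 TR-FRET ratio (665/Eu) reports MKK7 T275/S277 phosphorylation, lowered by DLK inhibition. Reaction: 60 μM ATP, 15 nM MKK7, 10 nM DLK catalytic domain, 90 min room temperature; detection incubation 16 h, 37° C. (1536-well) or 4° C. (384-well). Final concentrations.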

Chain of DLK (Q12852 1-520): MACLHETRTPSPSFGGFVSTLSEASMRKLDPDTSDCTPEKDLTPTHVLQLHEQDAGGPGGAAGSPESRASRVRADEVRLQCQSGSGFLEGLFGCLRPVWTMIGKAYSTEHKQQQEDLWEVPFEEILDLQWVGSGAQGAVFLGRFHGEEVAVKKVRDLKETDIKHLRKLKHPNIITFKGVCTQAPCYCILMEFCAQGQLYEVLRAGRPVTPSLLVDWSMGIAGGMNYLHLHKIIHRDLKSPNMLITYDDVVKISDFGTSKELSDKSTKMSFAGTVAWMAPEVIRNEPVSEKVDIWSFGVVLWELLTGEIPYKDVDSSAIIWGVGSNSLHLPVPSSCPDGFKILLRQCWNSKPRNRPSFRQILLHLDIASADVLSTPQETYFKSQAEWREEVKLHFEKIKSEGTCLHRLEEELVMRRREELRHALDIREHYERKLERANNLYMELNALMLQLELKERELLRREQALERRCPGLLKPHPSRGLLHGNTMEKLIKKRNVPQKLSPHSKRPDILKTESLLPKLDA
Chain of LZK (O43283 168-409): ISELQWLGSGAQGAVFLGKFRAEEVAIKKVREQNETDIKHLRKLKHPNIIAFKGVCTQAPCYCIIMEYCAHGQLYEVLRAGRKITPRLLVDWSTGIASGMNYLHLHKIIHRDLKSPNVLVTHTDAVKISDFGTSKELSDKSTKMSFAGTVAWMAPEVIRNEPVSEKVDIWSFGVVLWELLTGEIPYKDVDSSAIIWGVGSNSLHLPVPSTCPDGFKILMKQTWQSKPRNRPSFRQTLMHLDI

| IC50 [1] [nM] | IC50 [2] [nM] | SMILES |
| --- | --- | --- |
| 5700 | 1390 | Nc1nc2ccc(-c3csc(C(=O)NCc4cc(F)cc(F)c4)c3)cn2n1 [Compound 222] |
| 23000 | 640 | Cc1cccc(CNC(=O)c2cc(-c3ccc4nc(N)nn4c3)cs2)c1C [Compound 223] |
| > 30000 | 1660 | Nc1nc2ccc(-c3csc(C(=O)Nc4ccccc4Cl)c3)cn2n1 [Compound 224] |
| 6950 | 710 | Nc1nc2ccc(-c3csc(C(=O)NCc4ccc(Cl)cc4)c3)cn2n1 [Compound 225] |
| 5000 | 670 | CCOc1ccccc1CNC(=O)c1cc(-c2ccc3nc(N)nn3c2)cs1 [Compound 226] |
| > 30000 | 835 | Cc1ccccc1NC(=O)c1cc(-c2ccc3nc(N)nn3c2)cs1 [Compound 227] |
| > 30000 | 480 | COc1ccccc1NC(=O)c1cc(-c2ccc3nc(N)nn3c2)cs1 [Compound 228] |
| 28000 | 2500 | CN1CCCCC1CNC(=O)c1cc(-c2ccc3nc(N)nn3c2)cs1 (stereo not shown) [Compound 230] |
| 11000 | 860 | COc1cc(CNC(=O)c2cc(-c3ccc4nc(N)nn4c3)cs2)ccc1F [Compound 231] |
| 25000 | 200 | COc1cccc(C(C)NC(=O)c2cc(-c3ccc4nc(N)nn4c3)cs2)c1 (stereo not shown) [Compound 232] |
| 17000 | 440 | Cc1cccc(C)c1NC(=O)c1cc(-c2ccc3nc(N)nn3c2)cs1 [Compound 233] |
| 18000 | 470 | COc1cc(CNC(=O)c2cc(-c3ccc4nc(N)nn4c3)cs2)ccn1 [Compound 234] |
| 23000 | 370 | COc1cncc(CNC(=O)c2cc(-c3ccc4nc(N)nn4c3)cs2)c1 [Compound 235] |
| > 30000 | 315 | N#Cc1cccc(CNC(=O)c2cc(-c3ccc4nc(N)nn4c3)cs2)c1 [Compound 236] |
| > 30000 | 270 | COc1cc(CNC(=O)c2cc(-c3ccc4nc(N)nn4c3)cs2)cc(OC)c1 [Compound 238] |
| 18000 | 1850 | Nc1nc2ccc(-c3csc(C(=O)NCc4ncco4)c3)cn2n1 [Compound 239] |
| 6300 | 640 | Cc1csc(CNC(=O)c2cc(-c3ccc4nc(N)nn4c3)cs2)n1 [Compound 240] |
| 21000 | 1300 | Cn1ccnc1CNC(=O)c1cc(-c2ccc3nc(N)nn3c2)cs1 [Compound 241] |
| 19000 | 1800 | Cn1ccc(CNC(=O)c2cc(-c3ccc4nc(N)nn4c3)cs2)n1 [Compound 242] |
| 17000 | 1500 | Cc1cn(C)nc1CNC(=O)c1cc(-c2ccc3nc(N)nn3c2)cs1 [Compound 243] |
| > 30000 | 1300 | Nc1nc2ccc(-c3csc(C(=O)NCc4nc(C(F)(F)F)cs4)c3)cn2n1 [Compound 245] |
| 4400 | 1140 | Nc1nc2ccc(-c3csc(C(=O)NCc4nc5ccccc5o4)c3)cn2n1 [Compound 246] |
| 3800 | 800 | COc1ccc2oc(CNC(=O)c3cc(-c4ccc5nc(N)nn5c4)cs3)nc2c1 [Compound 247] |

| IC50 [1] [nM] | IC50 [2] [nM] | SMILES |
| --- | --- | --- |
| 7600 | 745 | CC(C)c1csc(CNC(=O)c2cc(-c3ccc4nc(N)nn4c3)cs2)n1 [Compound 249] |
| 4500 | 935 | Nc1nc2ccc(-c3csc(C(=O)NCc4cnc(Cl)s4)c3)cn2n1 [Compound 250] |
| 9100 | 1960 | Cn1cnc(CNC(=O)c2cc(-c3ccc4nc(N)nn4c3)cs2)c1 [Compound 251] |
| 10000 | 1000 | COc1cccc(CNC(=O)c2cc(-c3ccc4nc(N)nn4c3)cs2)n1 [Compound 254] |
| 4400 | 1990 | Cn1nccc1CNC(=O)c1cc(-c2ccc3nc(N)nn3c2)cs1 [Compound 255] |
| 17000 | 1600 | COc1ccnc(CNC(=O)c2cc(-c3ccc4nc(N)nn4c3)cs2)c1 [Compound 256] |
| > 30000 | 1100 | Nc1nc2ccc(-c3csc(C(=O)NCc4cn5ccccc5n4)c3)cn2n1 [Compound 257] |
| > 30000 | 1200 | COc1ccc2c(c1)nc(CNC(=O)c1cc(-c3ccc4nc(N)nn4c3)cs1)n2C [Compound 260] |
| 14000 | 510 | Nc1nc2ccc(-c3csc(C(=O)NCc4cnc5ccccn45)c3)cn2n1 [Compound 261] |
| > 30000 | 355 | COc1cccc([C@H](C)NC(=O)c2cc(-c3ccc4nc(N)nn4c3)cs2)c1 [Compound 263] |
| > 30000 | 505 | COc1cccc([C@@H](C)NC(=O)c2cc(-c3ccc4nc(N)nn4c3)cs2)c1 [Compound 264] |
| > 30000 | 130 | C[C@H](NC(=O)c1cc(-c2ccc3nc(N)nn3c2)cs1)c1cccc(Cl)c1 [Compound 265] |
| > 30000 | 260 | C[C@@H](NC(=O)c1cc(-c2ccc3nc(N)nn3c2)cs1)c1cccc(Cl)c1 [Compound 267] |
| 22000 | 180 | COc1ccc2c(c1)C(NC(=O)c1cc(-c3ccc4nc(N)nn4c3)cs1)CC(C)(C)O2 (stereo not shown) [Compound 268] |
| > 30000 | 590 | COc1cccc(C(C)(C)NC(=O)c2cc(-c3ccc4nc(N)nn4c3)cs2)c1 [Compound 269] |
| > 30000 | 3500 | CCNC(=O)c1cc(-c2ccc3nc(N)nn3c2)cs1 [Compound 270] |
| > 30000 | 3500 | COCCCNC(=O)c1cc(-c2ccc3nc(N)nn3c2)cs1 [Compound 271] |
| > 30000 | 1500 | COC1CCC(NC(=O)c2cc(-c3ccc4nc(N)nn4c3)cs2)C1 (stereo not shown) [Compound 272] |
| 14000 | 580 | Nc1nc2ccc(-c3csc(C(=O)NCc4ccsc4)c3)cn2n1 [Compound 273] |
| 11000 | 260 | Nc1nc2ccc(-c3csc(C(=O)NCc4cccs4)c3)cn2n1 [Compound 274] |
| 16000 | 630 | Nc1nc2ccc(-c3csc(C(=O)NCc4ccco4)c3)cn2n1 [Compound 275] |
| 15000 | 420 | Cn1cccc1CNC(=O)c1cc(-c2ccc3nc(N)nn3c2)cs1 [Compound 276] |
| 18000 | 480 | Nc1nc2ccc(-c3csc(C(=O)NCc4ccoc4)c3)cn2n1 [Compound 277] |

| IC50 [1] [nM] | IC50 [2] [nM] | SMILES |
| --- | --- | --- |
| > 30000 | 440 | CCc1ccccc1NC(=O)c1cc(-c2ccc3nc(N)nn3c2)cs1 [Compound 278] |
| > 30000 | 2100 | Nc1nc2ccc(-c3csc(C(=O)NCc4ccc(OCCN5CCCCC5)cc4)c3)cn2n1 [Compound 279] |
| 23000 | 250 | COC(=O)c1cccc(CNC(=O)c2cc(-c3ccc4nc(N)nn4c3)cs2)c1 [Compound 280] |
| > 30000 | 1500 | Nc1nc2ccc(-c3csc(C(=O)NCc4ccc(OCCN5CCOCC5)cc4)c3)cn2n1 [Compound 281] |
| > 30000 | 750 | COc1cccc(CCNC(=O)c2cc(-c3ccc4nc(N)nn4c3)cs2)c1 [Compound 282] |
| > 30000 | 530 | Nc1nc2ccc(-c3csc(C(=O)NCCc4c(F)cccc4Cl)c3)cn2n1 [Compound 283] |
| > 30000 | 2600 | CN(CCc1ccccc1)C(=O)c1cc(-c2ccc3nc(N)nn3c2)cs1 [Compound 284] |
| 20000 | 1700 | Nc1nc2ccc(-c3csc(C(=O)NCc4cccc(C(=O)O)c4)c3)cn2n1 [Compound 285] |
| > 30000 | 600 | Nc1nc2ccc(-c3csc(C(=O)Nc4ccccc4OC(F)(F)F)c3)cn2n1 [Compound 286] |
| > 30000 | 5700 | CCN1CCC[C@@H](NC(=O)c2cc(-c3ccc4nc(N)nn4c3)cs2)C1 [Compound 287] |
| 20000 | 2400 | Nc1nc2ccc(-c3csc(C(=O)Nc4ccccc4OC(F)F)c3)cn2n1 [Compound 288] |
| 2000 | 2600 | Nc1nc2ccc(-c3csc(C(=O)Nc4ccccc4CO)c3)cn2n1 [Compound 289] |
| 7400 | 620 | COc1cccc(C(CCO)NC(=O)c2cc(-c3ccc4nc(N)nn4c3)cs2)c1 (stereo not shown) [Compound 290] |
| 14000 | 710 | COc1cccc(C2(NC(=O)c3cc(-c4ccc5nc(N)nn5c4)cs3)CC2)c1 [Compound 291] |
| 19000 | 1200 | COCCOc1cccc(CNC(=O)c2cc(-c3ccc4nc(N)nn4c3)cs2)c1 [Compound 292] |
| > 30000 | 260 | CC(C)c1ccccc1NC(=O)c1cc(-c2ccc3nc(N)nn3c2)cs1 [Compound 293] |
| > 30000 | 710 | CC(O)c1ccccc1NC(=O)c1cc(-c2ccc3nc(N)nn3c2)cs1 (stereo not shown) [Compound 294] |
| 14000 | 390 | Nc1nc2ccc(-c3csc(C(=O)NCc4ccc5c(c4)OCO5)c3)cn2n1 [Compound 295] |
| 12000 | 730 | COc1cccc(CNC(=O)c2cc(-c3cn4nc(N)nc4cc3F)cs2)c1 [Compound 296] |
| 11000 | 710 | Nc1nc2cc(F)c(-c3csc(C(=O)NCc4ccccc4)c3)cn2n1 [Compound 297] |
| 4200 | 350 | C[C@@H](NC(=O)c1cc(-c2ccc3nc(N)nn3c2)cs1)c1ccc(F)cc1 [Compound 298] |
| 2500 | 120 | Nc1nc2ccc(-c3csc(C(=O)NC4(c5ccc(F)cc5)CC4)c3)cn2n1 [Compound 299] |
